# Data: patent US10240133B2, “ERK-derived peptides and uses thereof” (Yeda Research and Development Co. Ltd., priority 2013, dated 2019)
# Columns and labels:
# [1] = system: Elk1; assay: Western blotting of Elk1 phosphorylation; format: cell-based; details: varied among the cell lines; EPE vs scrambled after TPA
# Procedure: (A) EPE peptide prevents ERK1/2-importin7 interaction. HeLa cells were serum starved (0.1%, 16 hours), pretreated with EPE peptide, scrambled peptide (10 μM, 2 hours) or DMSO, and then stimulated with TPA (250 nM, 15 min). ERK1 were precipitated with αgERK1 Ab; importin7 co-immunoprecipitated with ERK1 was detected by WB with αimportin7 Ab. […] T47D, HeLa, MDA-MB-231 and A2352 cells were serum starved (0.1%, 16 hours), pretreated with EPE peptide, scrambled peptide (10 μM, 2 hours) or DMSO control, and then stimulated with TPA (250 nM, indicated times). Cell extracts were subjected to Western blot analysis with the indicated Abs. (C) EPE peptide inhibits phosphorylation of c-Myc and Elk1 in B-Raf melanomas. A2158 and A2352 cells were treated with scrambled and EPE peptide for two hours and then stimulated with the indicated concentration of TPA for 30 min. […] (D) Quantification of some of the results in B and C. […]
# (i) Preparation of cellular extracts for Western Blotting: Cells were rinsed twice with ice-cold PBS and scraped into Radio-immunoprecipitation assay buffer (RIPA; 137 mM NaCl, 20 mM Tris (pH 7.4), 10% glycerol, 1% Triton X-100, 0.5% deoxycholate, 0.1% SDS, 2 mM EDTA, 1 mM PMSF, and 20 μM leupeptin). The extracts were centrifuged (20,000×g, 15 min, 4° C.), and the supernatants were further analyzed by Western blotting. […]
# [2] = system: breast, prostate and cervical cancer-derived cells; assay: Proliferation assay (Methylene Blue); format: cell-based; details: 72 h after peptide administration, 10 μM
# Procedure: (§1) FIGS. 3A-3B illustrate that EPE peptide prevents proliferation of cancer but not normal cells. (A) Effect of the EPE peptide on the proliferation of various cell lines. Sixteen cancer and four “normal” immortalized cell lines were treated with either EPE or scrambled peptides as described above. Viable cells were assayed by Methylene Blue at 48 or 72 hours after cell seeding. The data from at least three independent experiments is presented as percent of the amount of viable cells/initial cell number, where initial cell number was considered as 100. (B) Comparison of the effects of the EPE-peptide and Raf inhibitor PLX4032 on cell viability. NHEM-Ad, LOXIMVI, A2352, Hela MDA-MB-231, and DU-145 cells were treated with EPE peptide, scrambled peptide, (10 μM), PLX4032 (1 μM), DMSO control, or no treatment at 1% FCS. The number of cells was detected as above. The graphs present the kinetic of cell growth at the indicated times. All experiments were repeated 3 times in triplicates.
# (§2) All cells, except of MCF-10A, were seeded into 12-well cell plates in 1% FBS medium. MCF-10A cells were seeded in their complete medium diluted 5 fold. DMSO, Scr peptide, EPE peptide, or U0126 (final concentration of 10 μM each) were added to the appropriated wells four hours later. Every day medium was changed to fresh one containing the same agents. The number of viable cells was measured by Methylene Blue assay at 72 h after cell seeding. Shortly, cells were fixed with 4% Formaldehyde for 2 h at 23° C., washed once with 0.1M Borate Buffer pH 8.5 and stained with of 1% Methylene Blue in 0.1M Borate Buffer for 10 min. Color was extracted by adding 0.1 M HCl for 3 h at 23° C., and examined at 595 nm. For time course experiments, viable cells were measured at 0, 24, 48, 72 and 96 h after cell seeding. For dose response experiments we treaded the cells with 0.1, 1, 3, 10, or 30 μM of peptides for 72 h, as described above.
# [3] = system: immortalized, non-transformed cells; assay: Proliferation assay (Methylene Blue); format: cell-based; details: 72 h after peptide administration, 10 μM
# Procedure: as §1, §2
# [4] = system: melanoma cells with oncogenic B-Raf (B-Raf melanoma); assay: Proliferation assay (Methylene Blue); format: cell-based; details: 72 h after peptide administration, 10 μM
# Procedure: as §1, §2
# [5] = system: other melanomas, prostate and lung cancer-derived cells; assay: Proliferation assay (Methylene Blue); format: cell-based; details: 72 h after peptide administration, 10 μM
# Procedure: as §1, §2
# [6] = system: PLX-4032 and U0126 resistant A2352 melanoma cells; assay: Proliferation of inhibitor-resistant melanoma cells; format: cell-based; details: 10 μM, 72 h
# Procedure: (A) A2352 melanoma cells resistant to either PLX4032 (B-Raf) or U0126 (MEK) inhibitors were treated with DMSO, EPE or Scr peptide (10 μM), U0126 (10 μM), PLX4032 (1 μM), Wortmannin (0.5 μM) or Taxol (25 μg/ml). Presented as percent of viable cells at 72 h/initial cell number. […] Methylene blue assay was performed to quantify viable cells. Experiments were done twice in triplicate. Data presented as fold change.
# A2352 cells were supplemented with either PLX4032 (B-Raf inhibitor, 1 μM), or U0126 (MEK inhibitor, 10 μM) for 45 days. […]
# [7] = mouse, in vivo
# Procedure: Female SCID mice (Harlan), 5-6 weeks of age, were inoculated s.c. into the flank region with 10^7 A2352 cells in 150 μl mixture of PBS with matrigel (2:1). Tumors were allowed to develop to the size of 5-6.5 mm in diameter (50˜110 mm^3 volume) and then the animals were randomly allocated to different treatment groups. The peptides (100 mM stock in DMSO), were diluted to the necessary concentration in PBS and boiled for 5 minutes. Then, DMSO, Scr or EPE peptides were administered by i.v. injection into the tail vein (150 μl/mouse, 3 times a week). Tumor dimensions were measured with a digital sliding caliper. Tumor volume was calculated using the formula: V=D1×D2×D3×π/6, where D1, D2, D3—represent the three mutually orthogonal growth diameters. To assess any signs of systemic toxicity, body weight was monitored, and recorded at the end of the experiment.
# Tumor xenografts, lungs, livers, kidneys and hearts of animals from different treatment groups were removed and subjected for histological analysis by staining of 5 μm paraffin embedded tissue slides with H&E, and examination by light microscope. […] Briefly, paraffin embedded blocks of tumors after different treatments were cut at 4 μm thickness and stained with ERK Abs, followed by second antibodies conjugated to peroxidase and DAB staining. Representative fields of each specimen were photographed at ×20 and ×40 magnifications.
sequence,measurement,setting,value
GQLNHILGILGEPEQED (Synthetic peptide (EPE)) [EPE peptide],inhibition of phosphorylation of Elk1,[1],20-45%
same,proliferation (cell number),[2],"prevented cell growth, but did not reduce the number of initial cells"
same,proliferation (cell number),[3],did not respond to the peptide at all
same,proliferation (cell number),[4],profound reduction in cell number
same,proliferation (cell number),[5],small decrease in cell growth
same,cell growth,[6],able to reduce cell growth
same,"size or structure of the kidneys, livers and hearts",[7],did not affect
same,structure of the lungs,[7],not affected
